Results published in patent publication US12338266B2 (GENETIC S.P.A., priority 2019, dated 2025).
“Also recorded” adds a separate entry of the source.

Key:
Type in all cases: in vivo, Balb/c mice
[1] = system: mice with OVA-induced allergic asthma; experiment: Total and differential leukocyte counts in BAL fluid (Protocol-2)
Procedure: (§1) Male Balb/c SPF mice (26*2 g, 6 week-old) were purchased from the animal house facilities at the Faculty of Medicine (University of Sāo Paulo, Brazil). They were group-housed in a temperature-controlled room at 22° C. with a 12/12-hour light/dark cycle and allowed free access to food and water. The study is in agreement with the Ethical Principles for Animal Research established by the Brazilian College for Animal Experimentation (COBEA). According to the internal laboratory rules, euthanasia will be performed if severe distress related to the test agents developed during the experiment. Mice were sensitized with two subcutaneous injections of 0.2 ml of OVA/Al(OH)3, with an interval of 7 days (Sham animals received the Al(OH)3 suspension in PBS with no OVA). Chicken egg-white ovalbumin (OVA; grade V, cat. A5503, Sigma Chemical Co., St. Louis, Mo.) was dissolved in sterile phosphate buffered saline (PBS) solution (50 μg/ml) and Al(OH)3 was added (at 8 mg/ml). This mix was used to induce the allergic sensitization of the animals by subcutaneous injection. OVA was dissolved at 1% in sterile PBS solution and this solution was nebulized (as the immunological challenges). Seven days after the second sensitization (i.e., 3rd week), the animals were nebulized twice a week with the 1% OVA solution (Sham and untreated OVA groups were nebulized with PBS) during 20 minutes for the next 4 weeks. Thirty minutes before the challenges (OVA nebulization) and daily during the next 4 weeks, mice were intra-nasally treated (10 μl/animal as 5 μl/nostril) with the respective compounds/vehicle. […] Animals were killed at selected time points by overdose of enflurane and BAL and blood collected.
After Penh evaluation, the mice were anesthetized with inhaled isofluorane (5% v/v in O2) and blood samples were collected from the descending abdominal aorta. The mice were then euthanized by exsanguination and bronchoalveolar lavage (BAL) was performed by exposing and cannulating the trachea with a polyethylene tube (1 mm outer diameter) connected to a syringe. The lungs were washed by flushing 300 μL of heparin-containing PBS solution (20 UI/mL). The retrieved BAL lavage aliquots were obtained and the same procedure was repeated four additional times. The samples were centrifuged (1000 g for 10 min) and the cell pellet was resuspended in 200 μL of PBS solution, Total cell counts were determined using a Neubauer chamber, and differential counting was carried out in cytospin (Fanem Mod 2400; Sāo Paulo, Brazil) preparations stained with May-Grünwald dye. Leukocytes were classified based on morphological criteria.

[2] = system: mice with OVA-induced allergic asthma; experiment: Plasma IgE levels by ELISA in OVA-sensitized mice (Protocol-1)
Procedure: Balb/c mice (8-9 weeks old, Charles River, Calco, Italy) were housed in the animal care facility at the Department of Pharmacy of the University of Naples. Italy in a controlled environment (temperature 21±2° C. and humidity 60±10%) and provided with standard rodent chow and water. All animals were allowed to acclimate for four days prior to experiments and were subjected to 12 h light-12 h dark schedule. Each mouse was assigned an identity number and randomtzed to different groups so that all experiments were carried out in a blinded manner. The experimental procedures were approved by the Italian Ministry according to International and National law and policies (EU Directive 2010/63/EU and Italian DL 26/2014 for animal experiments, ARRIVE guidelines and the Basel declaration including the 3R concept). Animal studies are reported in compliance with the ARRIVE guidelines. Balb/c mice is the most widely mouse strain used to study asthma-like features in vivo and to investigate the undedying molecular and cellular mechanisms of allergen sensitization. Mice were treated subcutaneously (s.c.) with 0.4 mL (100 μg) of ovalbumin (OVA) complexed with alum (13 mg mL^−1) (OVA group) at day 0 and 7. Chicken egg-white ovalbumin (OVA: grade V. cat. A5503, Sigma Chemical Co., St. Louis, MO) was dissolved in sterile phosphate buffered saline (PBS) solution (250 μg/1 ml) and Al(OH)3 was added (at 13 mg/ml). This mix was used to induce the allergic sensitization of the animals by subcutaneous injection. OVA was dissolved at 3% in sterile PBS solution and this solution was nebulized (as the immunological challenges). At day 21 mice were exposed to OVA challenge for three days and then sacrificed. This experimental procedure induces in the mice an increase in plasma IgE levels and this effect is by itself sufficient to induce a significant increase in bronchial hyper-responsiveness and pulmonary inflammation, typical hallmarks of asthma. A group of animals was treated s.c. with saline (vehicle group). […] Animals were killed at selected time points by overdose of enflurane and bronchi and blood collected.
Blood was collected by intracardiac puncture using citrate as anticoagulant. Plasma was obtained by centrifugation at 800×g at 4′C for 10 minutes and immediately frozen at −80° C. Total IgE levels were measured by means of ELISA using matched antibody pairs (BD Biosciences Pharmingen San Jose, Calif.).

[3] = system: mice with OVA-induced allergic asthma; experiment: Lung hyperreactivity / Penh by whole body plethysmography (Protocol-2)
Procedure: as §1
Airway responsiveness in conscious, spontaneously breathing animals was measured at the end of the 6th week (i.e., after 4 weeks OVA challenges+treatments), 24 h after the last OVA/PBS challenge via whole body plethysmography (Buxco Europe Ltd, Winchester, UK). Experiments were carried out in a quiet room by an investigator who was unaware of the nature of treatments. Aerosolized saline (50 μl/mouse during 60 s) and then the muscarinic agonist metacholine (MCh) at increasing concentrations (3.12, 6.25, 12.5 and 25.0 mg/ml in PBS) was nebulized through an inlet of the main chamber for 3 min each to induce bronchoconstriction and readings were taken and averaged for 6 min following each nebulization. After 20 min. the baseline values usually returned at the end of this period. Enhanced pause (Penh) was measured as an indicator of bronchoconstriction and consequent increase of airway resistance as: Penh=[(expiration time/relaxation time)−1][…].

[4] = 10 nmol/animal/day, comparable with ciclesonide alone at 100 nmol/animal/day

Structure (SMILES): CC(C)(O)c1ccccc1CCC(SCC1(CC(=O)OCC(=O)[C@@]23O[C@H](C4CCCCC4)O[C@@H]2C[C@H]2[C@@H]4CCC5=CC(=O)C=C[C@]5(C)[C@H]4[C@@H](O)C[C@@]23C)CC1)c1cccc(/C=C/c2ccc3ccc(Cl)cc3n2)c1 (stereo partly drawn) [montelukast desisobutyryl-ciclesonide ester]
- inhibition of eosinophil recruitment to the lungs at the lowest dose tested [1, 4]: significant effects
- BAL eosinophils (OVA-induced increase) ([1]; 10, 30 and 100 nmol/animal/day intranasal, 4 weeks, FIG. 10): did not reach statistical significance; also recorded: lower number of eosinophils
- allergen induced plasma IgE increase ([2]; 0.5, 1 and 2 mg/Kg i.p.): reduces allergen induced IgE increase in a dose-dependent manner
- inhibition of allergen induced IgE increase, compared to ciclesonide ([2]; ester 2 mg/kg i.p. vs ciclesonide 1 mg/kg, FIG. 6C): increased inhibitory effect
- respiratory function at the lowest dose tested [3, 4]: significant effects
- airway responsiveness, Penh (basal, methacholine Emax and AUC) ([3]; 10, 30 and 100 nmol/day/animal intranasal, daily for 4 weeks, FIG. 8A-D): Significant reduction of this response; also recorded: significantly reduced
